Experimental data as given in patent publication US20250346602A1, “LACTAM SUBSTITUTED IMIDAZOPYRIDAZINE IL-17A MODULATORS AND USES THEREOF” (DICE ALPHA, INC., priority 2022, published 2025).
pIC50: −log10 of the molar value.

Molecular target: T1, IL-17A/A (Homo sapiens, UniProt Q16552)
T1 construct: purchased Genscript Z03228
T1 sequence (Q16552 24-155): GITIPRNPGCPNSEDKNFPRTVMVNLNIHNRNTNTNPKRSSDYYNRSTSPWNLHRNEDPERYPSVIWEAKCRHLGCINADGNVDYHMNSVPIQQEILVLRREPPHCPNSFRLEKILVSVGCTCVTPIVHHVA
Assay: IL-17A/A HEK-Blue cell assay
Type: cell-based
Conditions: HEK-Blue IL-17A reporter cell line (HEK 293), IL-17A/A stimulation, 20 hours incubation, SEAP read at A630
Method: The HEK-Blue IL-17A reporter cell line (Fisher #NC1408637) was used for cell-based IL-17A/A inhibition assays. Cells were grown and prepared for assays according to the manufacturer's instructions. This cell line consists of HEK 293 cells that were designed to expressed IL-17RA, IL-17RC, and the ActI adapter molecule, the combination of which, when stimulated by IL-17A/A activates a NFκB promoter and drives expression of a recombinant Secreted Alkaline Phosphatase (SEAP) gene protein. Media from the cells is then added to a development reagent (Quanti-Blue Substrate, Fisher #NC9711613), and read at A630.
Compounds were titrated in DMSO, with a top final compound concentration of 10 uM, 1 uM, or 0.3 uM, and added to the cells immediately before adding IL-17A/A (Genscript #Z03228). The cells, compound, and IL-17A/A were then incubated for 20 hours before media was removed for SEAP analysis. The resulting inhibition curve was then analyzed using Graphpad Prism 7.0, and IC50 values were determined using a 4-parameter nonlinear fit. DMSO was added to a universal final concentration of 0.1% to optimize background.

Structure (SMILES)	pIC50
CCn1nccc1C(=O)N[C@H](c1cn2ncc(CC3CCNC3=O)cc2n1)C1CCCCCC1 (stereo partly drawn) [Compound 203, N-((1 S)-cycloheptyl(7-((2-oxopyrrolidin-3-yl)methyl)imidazo[1,2-b]pyridazin-2-yl)methyl)-1-ethyl-1H-pyrazole-5-carboxamide]	< 6.00
O=C(N[C@H](c1cn2nc(CC3C[C@@H](C(F)(F)F)CNC3=O)ccc2n1)C1CCC(F)(F)CC1)c1ccnn1CC(F)F (stereo partly drawn) [Compound 106, N-((1S)-(4,4-difluorocyclohexyl)(6-(((5R)-2-oxo-5-(trifluoromethyl)piperidin-3-yl)methyl)imidazo[1,2-b]pyridazin-2-yl)methyl)-1-(2,2-difluoroethyl)-1H-pyrazole-5-carboxamide]	6.00 to 7.00
O=C(N[C@H](c1cn2nc(CC3C[C@@H](C(F)(F)F)CNC3=O)ccc2n1)C1CCC(F)(F)CC1)c1nonc1C1CC1 (stereo partly drawn) [Compound 104, 4-cyclopropyl-N-((1S)-(4,4-difluorocyclohexyl)(6-(((5R)-2-oxo-5-(trifluoromethyl)piperidin-3-yl)methyl)imidazo[1,2-b]pyridazin-2-yl)methyl)-1,2,5-oxadiazole-3-carboxamide]	> 7.00
CCn1nccc1C(=O)N[C@H](c1cn2nc(CC3C(=O)NCC3C(F)(F)F)ccc2n1)C(C1CC1)C1CC1 (single isomer, unassigned) [Compound 44]	6.00 to 7.00
CCn1nccc1C(=O)N[C@H](c1cn2ncc(CC3C[C@@H](C(F)(F)F)NC3=O)cc2n1)C1CCCCCC1 (mixture of isomers) [Compound 207, N-((l S)-cycloheptyl(7-(((5S)-2-oxo-5-(trifluoromethyl)pyrrolidin-3-yl)methyl)imidazo[1,2-b]pyridazin-2-yl)methyl)-1-ethyl-1H-pyrazole-5-carboxamide]	> 7.00
CCn1nccc1C(=O)N[C@H](c1cn2nc(CC3CC(F)(F)CNC3=O)ccc2n1)C(C1CC1)C1CC1 (single isomer, unassigned) [Compound 28]	6.00 to 7.00
CCn1nccc1C(=O)N[C@H](c1cn2nc(C(C)C3C[C@@H](C(F)(F)F)CNC3=O)ccc2n1)C(C1CC1)C1CC1 (single isomer, unassigned) [Compound 57]	< 6.00
CCn1nccc1C(=O)N[C@H](c1cn2nc(CC3C(=O)NCC3C(F)(F)F)ccc2n1)C(C1CC1)C1CC1 (single isomer, unassigned) [Compound 46]	< 6.00
CCn1nccc1C(=O)N[C@H](c1cn2nc(CC3C[C@@H](C)NC3=O)ccc2n1)[C@H]1CC[C@H](C)CC1 (single isomer, unassigned) [Compound 63]	6.00 to 7.00
CCn1nccc1C(=O)N[C@H](c1cn2nc(CC3CC(F)(F)CNC3=O)ccc2n1)C(C1CC1)C1CC1 (single isomer, unassigned) [Compound 29]	< 6.00
CCn1nccc1C(=O)N[C@H](c1cn2nc(CC3CC(F)(F)CNC3=O)c(OC)cc2n1)C1CCC(F)(F)CC1 (stereo partly drawn) [Compound 75, N-((1S)-(6-((5,5-difluoro-2-oxopiperidin-3-yl)methyl)-7-methoxyimidazo[1,2-b]pyridazin-2-yl)(4,4-difluorocyclohexyl)methyl)-1-ethyl-1H-pyrazole-5-carboxamide]	< 6.00
CCn1nccc1C(=O)N[C@H](c1cn2nc(CC3CC4(CC4)CNC3=O)ccc2n1)[C@H]1CC[C@H](C)CC1 (single isomer, unassigned) [Compound 64]	6.00 to 7.00
CCn1nccc1C(=O)NC(c1cn2ncc(CC3CCC(C(F)(F)F)NC3=O)cc2n1)C1CCC(C)CC1 (single isomer, unassigned) [Compound 214]	6.00 to 7.00
CC(C)n1nccc1C(=O)N[C@H](c1cn2nc(CC3C[C@H](C(F)(F)F)CNC3=O)ccc2n1)[C@H]1CCCC(F)(F)C1 (stereo partly drawn) [Compound 159, N-((1S)—((S)-3,3-difluorocyclohexyl)(6-(((5S)-2-oxo-5-(trifluoromethyl)piperidin-3-yl)methyl)imidazo[1,2-b]pyridazin-2-yl)methyl)-1-isopropyl-1H-pyrazole-5-carboxamide]	> 7.00
CCn1nccc1C(=O)N[C@H](c1cn2nc(CC3C[C@@H](C(F)(F)F)CNC3=O)ccc2n1)C12CC(C)(C1)C2 (stereo partly drawn) [Compound 178, 1-ethyl-N-((1S)-(3-methylbicyclo[1.1.1]pentan-1-yl)(6-(((5R)-2-oxo-5-(trifluoromethyl)piperidin-3-yl)methyl)imidazo[1,2-b]pyridazin-2-yl)methyl)-1H-pyrazole-5-carboxamide]	< 6.00
CCn1nccc1C(=O)NC(c1cn2nc(CC3CC(C)CNC3=O)ccc2n1)C1CCC(C)CC1 (single isomer, unassigned) [Compound 49]	6.00 to 7.00
CCn1nccc1C(=O)N[C@H](c1cn2nc(CC3CC(C4CC4)CNC3=O)ccc2n1)C1CCC(F)(F)CC1 (single isomer, unassigned) [Compound 70]	6.00 to 7.00
O=C(N[C@H](c1cn2nc(CC3C[C@@H](C(F)(F)F)CNC3=O)ccc2n1)C1CCC(F)(F)CC1)c1conc1C12CC(F)(C1)C2 (stereo partly drawn) [Compound 140, N-((1S)-(4,4-difluorocyclohexyl)(6-(((5R)-2-oxo-5-(trifluoromethyl)piperidin-3-yl)methyl)imidazo[1,2-b]pyridazin-2-yl)methyl)-3-(3-fluorobicyclo[1.1.1]pentan-1-yl)isoxazole-4-carboxamide]	6.00 to 7.00
CCn1nccc1C(=O)N[C@H](c1cn2nc(CC3CCC(C(F)(F)F)NC3=O)ccc2n1)C(C1CC1)C1CC1 (single isomer, unassigned) [Compound 42]	< 6.00
O=C(N[C@H](c1cn2nc(CC3C[C@@H](C(F)(F)F)CNC3=O)ccc2n1)[C@@H]1CCCC(F)(F)C1)c1nonc1C1CC1 (stereo partly drawn) [Compound 145, 4-cyclopropyl-N—((S)-((R)-3,3-difluorocyclohexyl)(6-(((5R)-2-oxo-5-(trifluoromethyl)piperidin-3-yl)methyl)imidazo[1,2-b]pyridazin-2-yl)methyl)-1,2,5-oxadiazole-3-carboxamide]	> 7.00
CCn1nccc1C(=O)N[C@H](c1cn2ncc(CC3C[C@H](C(F)(F)F)CNC3=O)cc2n1)C(C1CC1)C1CC1 (single isomer, unassigned) [Compound 209]	< 6.00
CC[C@@H](c1ccc(F)cc1)[C@H](NC(=O)c1ccnn1CC)c1cn2nc(C[C@H]3C[C@@H](C(F)(F)F)NC3=O)ccc2n1 [Compound 22, 1-ethyl-N-((1S,2S)-2-(4-fluorophenyl)-1-(6-(((3R,5S)-2-oxo-5-(trifluoromethyl)pyrrolidin-3-yl)methyl)imidazo[1,2-b]pyridazin-2-yl)butyl)-1H-pyrazole-5-carboxamide]	6.00 to 7.00
CCn1nccc1C(=O)N[C@H](c1cn2nc(CC3C[C@@H](C(F)(F)F)CNC3=O)ccc2n1)C1CC(C2CC2)(C2CC2)C1 (stereo partly drawn) [Compound 172, N-((1S)-(3,3-dicyclopropylcyclobutyl)(6-(((5R)-2-oxo-5-(trifluoromethyl)piperidin-3-yl)methyl)imidazo[1,2-b]pyridazin-2-yl)methyl)-1-ethyl-1H-pyrazole-5-carboxamide]	< 6.00
CCn1nccc1C(=O)N[C@H](c1cn2nc(CC3C[C@@H](C(F)(F)F)CNC3=O)ccc2n1)[C@@H]1CCCC(F)(F)C1 (stereo partly drawn) [Compound 143, N-((1S)—((R)-3,3-difluorocyclohexyl)(6-(((5R)-2-oxo-5-(trifluoromethyl)piperidin-3-yl)methyl)imidazo[1,2-b]pyridazin-2-yl)methyl)-1-ethyl-1H-pyrazole-5-carboxamide]	> 7.00
